These results are taken from patent US6642256B2, “Piperidine derivatives as subtype selective N-Methyl-D-Aspartate antagonists” (Warner-Lambert Company LLC, priority 2000, dated 2003).

A value given as a limit tells only on which side of the number the result lay.

Assay [1] concerns the target T1, NR1A/NR2B NMDA receptor subtype (Rattus norvegicus, UniProt P35439+Q00960).
T1 construct: buffy coat membrane fraction was prepared from frozen adult rat forebrains; tissue Zivic-Miller Laboratories, Inc; host or cells: adult rat forebrain membranes
As to the kind of experiment: [3H]Ifenprodil binding assay (IFPNR), rat forebrain membranes. The following applies: Table 1, 4 nM [3H]-ifenprodil, read-out: IFPNR (IC50 μM). How it is done: b. [^3H]Ifenprodil Binding Assay (IFPNR) Protocol:
Ifenprodil, [phenyl-^3H]-(specific activity, 66.2 Ci/mmol) was purchased from Dupont NEN Research Products (Boston, Mass.). Ifenprodil tartrate was purchased from Research Biochemicals International (Natick, Mass.). HEPES, glutamate and glycine were purchased from Sigma Chemical Co. (St. Louis, Mo.).
All buffers and reagents used in assay incubations or to dissolve drugs were prepared using water purified through a Milli-Q reverse osmosis system (Millipore Corp., Bedford, Mass.) and treated with UV emissions. Prior to use in the assays buffers were further filtered through a sterile Coming filtration unit (Coming Glass Works, Coming, N.Y.) containing a 0.2 micron filter. Buffer used to rinse the membranes on the assay filters was prepared with purified water, but was not refiltered and was stored no longer than 5 days. Stock solutions of the drugs (usually 10 mM) were dissolved in 20 mM HEPES-KOH buffer pH 7.4 (assay buffer) with the addition of 1 to 5 μL of glacial AcOH, if needed to keep them in solution. Eliprodil was used as the reference NMDA antagonist. A stock solution of eliprodil was prepared, and was buffered with the addition of 10% DMSO. All subsequent dilutions from the stock solution were made in buffer.
An extensively washed buffy coat membrane fraction was prepared from frozen adult rat forebrains (Zivic-Miller Laboratories, Inc., Zelienople, Pa.) as described by Coughenour L. L.; Cordon, J. J., J. Pharmacol. Exp. Ther., 1997;280:584-592, and stored at −80° C. On the day of the assay, pellets of the frozen membrane fractions were resuspended in 35 mL of assay buffer at pH 7.4 using a POLYTRON (Kinematica A. G. Company, Littau, Switzerland) mixer at setting 6. After incubation at 37° C. for 30 minutes in a shaking water bath, the homogenate was centrifuged 40,000×g for 10 minutes at 4° C. The pellets were resuspended in fresh buffer and centrifuged 3 more times before final suspension for use in the assay.
(iii) [^3H]Ifenprodil Binding protocol:
Triplicate incubations were carried out in a volume of 0.5 mL in 1.3 mL polypropylene tubes (Marsh Biomedical Products Inc, Rochester, N.Y.) for 2 hours at room temperature. Incubations contained invention compounds, membranes (100-200 μg protein) and 4 nM [^3H]-ifenprodil in 20 mM HEPES-KOH buffer, pH 7.4 (assay buffer). Assays were started by addition of the membranes. Bound radioligand was separated by filtration under reduced pressure using a TOMTEC Mach II, 96-well cell harvester (Tomtec Inc, Orange, Conn.). Filtration was through Whatman GF/B glass fiber filters (Whatman Ltd., Maidstone, England), which had been soaked for at least 15 minutes in 0.3% polyethylenimine and allowed to air dry. The filters were rinsed with 3 mL of ice cold assay buffer within 6 seconds. Air was allowed to pass through the filters for an additional 10 seconds to remove residual moisture. The filter mat was supported on a cold (−20° C.) TEFLON (E. I. Du Pont de Nemours and Company, Wilmington, Del.) coated support, and filters from individual wells were separated and placed in Mini Poly-Q vials (Becklman Instruments Inc, Fullerton, Calif.) and filled with 4 mL of scintillation cocktail (Beckman Ready Protein^+). Radioactivity retained on the filter was determined by liquid scintillation spectrophotometry. Nonspecific binding was defined as the binding in the presence of […] ifenprodil. Ninety percent of the total binding of ifenprodil was specific binding at the NR1A/NR2B NMDA receptor subtype active site (as opposed to binding at a remote site).
Binding curves were statistically analyzed for a best 1- or 2-site competition fit using GRAPHPAD PRISM software (GraphPad Software Inc, San Diego, Calif.), a computer program used to analyze and graph scientific data. The normalized data was fitted by nonweighted nonlinear regression to either [formula]
Control data was entered as 100%, and no parameters were constrained. […]

The test system of assay [2] is 6-Hydroxydopamine-lesioned rats. The assay can be described thus: 6-OHDA lesioned rat assay (potentiation of L-DOPA-induced contraversive rotation). The format is in vivo. The following applies: Table 1; po; statistically significant increase in contraversive rotations versus L-DOPA alone (L-DOPA methyl ester 10 mg/kg SC). From the text:
b. The 6-OHDA Lesioned Rat Assay (6-OHDA):
The 6-OHDA model is used to test compounds of the invention for anti-Parkinsonism activity.
(i) 6-OHDA lesioned rat assay protocol:
6-Hydroxydopamine-lesioned rats were used (see Ungerstedt U, Arbuthnott G W: “Quantitative recording of rotational behavior in rats after 6-hydroxy-dopamine lesions of the nigrostraiatal dopamine system”, Brain Res., 1971;24(3):485-493). Adult male Sprague-Dawley rats were anesthetized with chloral hydrate, and unilateral lesions of the nigrostriatal dopamine system were accomplished by infusion of 8 μg of 6-hydroxydopamine HBr (6-OHDA) into the right medial forebrain bundle. Rats were pretreated 30 minutes before surgery with desipramine HCl 25 mg/kg intraperitoneally (IP) to protect noradrenergic neurons, and pargyline 25 mg/kg IP to potentiate the effects of 6-OHDA. A minimum of 3 weeks after surgery, the rotational behavior induced by apomorphine HCL 50 μg/kg administered subcutaneously (SC) was assessed.
(ii) Measurement of animal behavior:
Rotational behavior was measured using an automatic rotometer system (Rotorat Rotational Activity System, MED Associates, Georgia, Vt.). Antiparkinsonian activity was assessed as the ability of the invention compounds to potentiate the contraversive rotation induced by L-DOPA methyl ester, dosed at 10 mg/kg SC, over a 6-hour period. […]

T1 sequence (Q00960 27-1482, other chains not shown): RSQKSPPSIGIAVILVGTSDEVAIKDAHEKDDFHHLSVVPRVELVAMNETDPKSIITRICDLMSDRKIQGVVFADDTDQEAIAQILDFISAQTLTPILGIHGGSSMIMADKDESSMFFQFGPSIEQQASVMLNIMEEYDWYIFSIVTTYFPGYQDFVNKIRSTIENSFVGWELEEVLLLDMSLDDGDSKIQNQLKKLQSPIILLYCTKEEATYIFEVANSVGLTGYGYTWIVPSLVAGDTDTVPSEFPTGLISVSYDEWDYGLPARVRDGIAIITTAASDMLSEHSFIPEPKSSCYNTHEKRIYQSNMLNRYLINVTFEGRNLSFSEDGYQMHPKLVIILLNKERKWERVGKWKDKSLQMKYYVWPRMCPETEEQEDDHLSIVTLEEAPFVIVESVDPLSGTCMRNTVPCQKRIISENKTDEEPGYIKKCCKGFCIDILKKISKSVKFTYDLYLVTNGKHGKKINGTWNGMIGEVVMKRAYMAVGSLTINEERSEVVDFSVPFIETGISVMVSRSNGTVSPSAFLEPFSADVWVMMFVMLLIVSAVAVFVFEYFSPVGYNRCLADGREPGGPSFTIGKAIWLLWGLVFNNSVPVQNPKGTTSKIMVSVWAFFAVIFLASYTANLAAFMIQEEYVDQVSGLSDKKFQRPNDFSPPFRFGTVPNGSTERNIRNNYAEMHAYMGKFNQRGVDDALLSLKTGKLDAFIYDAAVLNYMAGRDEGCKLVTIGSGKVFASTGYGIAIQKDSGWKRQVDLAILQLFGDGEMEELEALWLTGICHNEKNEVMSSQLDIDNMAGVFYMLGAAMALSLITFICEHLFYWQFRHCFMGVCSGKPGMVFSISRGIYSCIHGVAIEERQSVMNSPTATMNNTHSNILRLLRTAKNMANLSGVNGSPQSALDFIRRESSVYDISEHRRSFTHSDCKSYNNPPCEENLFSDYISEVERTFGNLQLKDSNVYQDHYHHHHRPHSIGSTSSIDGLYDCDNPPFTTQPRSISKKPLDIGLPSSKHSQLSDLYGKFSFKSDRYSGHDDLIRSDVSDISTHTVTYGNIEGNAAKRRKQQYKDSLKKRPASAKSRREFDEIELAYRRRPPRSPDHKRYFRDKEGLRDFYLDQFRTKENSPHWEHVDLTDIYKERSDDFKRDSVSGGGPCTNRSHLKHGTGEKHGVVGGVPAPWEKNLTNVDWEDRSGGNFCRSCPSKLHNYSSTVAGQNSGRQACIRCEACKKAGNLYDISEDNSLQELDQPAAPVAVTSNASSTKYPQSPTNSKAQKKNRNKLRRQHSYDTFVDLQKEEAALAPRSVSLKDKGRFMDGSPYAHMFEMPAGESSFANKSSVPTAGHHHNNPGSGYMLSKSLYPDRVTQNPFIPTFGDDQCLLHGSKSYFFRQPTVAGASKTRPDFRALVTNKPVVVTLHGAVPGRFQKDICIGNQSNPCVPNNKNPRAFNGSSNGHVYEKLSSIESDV

On to `O=c1[nH]c2ccc(C3=NOC(CN4CCC(Cc5ccccc5)CC4)C3)cc2o1` (racemic) [Example 1, 6-[5-(4-Benzylpiperidin-1-ylmethyl)-4,5-dihydroisoxazol-3-yl]-3H-benzoxazol-2-one], for which, in assay [1], the IC50 was found to be 0.033 µM. In assay [2], the “6-OHDA (mg/kg), minimum effective dose (MED)” value was >10 (po) mg/kg.
On the same counts, the results for `O=c1[nH]c2ccc(C3=NOC(CN4CCC(Cc5ccc(F)cc5)CC4)C3)cc2o1` (single isomer, unassigned; (-)) [Example 4b, (−)-6-{5-[4-(4-Fluorobenzyl)piperidin-1-ylmethyl]4,5-dihydroisoxazol-3-yl}-3H-benzoxazol-2-one] are 0.28 µM and >30 (po) mg/kg.

In general, IC50 refers to the concentration that gives 50% inhibition.
